According to ChEMBL document CHEMBL5096227, “Discovery of Ervogastat (PF-06865571): A Potent and Selective Inhibitor of Diacylglycerol Acyltransferase 2 for the Treatment of Non-alcoholic Steatohepatitis” (J Med Chem, 2022):

What was measured:
[1] = Apparent intrinsic clearance in cryopreserved human hepatocytes measured per million cells at 1 uM incubated for 4 hrs by LC-MS/MS analysis; format: ADME, cell-based, Hepatocyte; conditions: for hepatocyte CLint at 1 µM: cryopreserved human hepatocytes, read-out: CLH
[2] = Apparent permeability in MDCK-II cells; format: ADME, cell-based, Canis lupus familiaris; conditions: dog
physchem = conditions: buffer, pH 7.4
Description: Lipophilicity, logD of compound at pH 7.4 by shake flask method

[3] = Apparent intrinsic clearance in human liver microsomes; format: ADME, Microsome; conditions: read-out: CLH
[4] = Apparent permeability of compound; format: ADME; conditions: not told
[5] = Lipophilicity, logD of compound; format: physicochemical; conditions: octanol/water
[6] = Apparent intrinsic clearance in human hepatocytes measured per million cells; format: ADME, cell-based, Hepatocyte; conditions: read-out: CLH
[7] = target: T1, Diacylglycerol O-acyltransferase 2 (Homo sapiens, UniProt Q96PD7); assay: Inhibition of human DGAT2 expressed in Sf9 insect cell membrane using [1-14C]decanoyl-CoA and 1,2-didecanoyl-sn-glycerol as substrates assessed as incorporation of [1-14C]decanoyl into triacylglycerol preincubated for 120 mins followed by substrate addition and measured after 40 mins by scintillation counting method; format: cell membranes
T1 sequence (Q96PD7 whole entry): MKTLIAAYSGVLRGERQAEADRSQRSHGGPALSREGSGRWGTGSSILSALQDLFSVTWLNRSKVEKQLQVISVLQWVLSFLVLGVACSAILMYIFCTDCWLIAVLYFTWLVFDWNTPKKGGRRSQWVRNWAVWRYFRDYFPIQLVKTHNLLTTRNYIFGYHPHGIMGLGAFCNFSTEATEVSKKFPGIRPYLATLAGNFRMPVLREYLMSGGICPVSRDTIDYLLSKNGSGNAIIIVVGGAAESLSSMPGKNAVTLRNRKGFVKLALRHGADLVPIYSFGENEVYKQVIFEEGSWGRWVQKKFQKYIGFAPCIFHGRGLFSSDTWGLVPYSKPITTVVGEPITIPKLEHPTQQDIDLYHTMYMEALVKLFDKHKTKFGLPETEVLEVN

[8] = Apparent intrinsic clearance in human liver microsomes in presence of NADPH; format: ADME, Microsome; conditions: read-out: CLH
[9] = Drug metabolism in cryopreserved human hepatocytes assessed as oxidation of primary alcohol to carboxylic acid mediated metabolite formation at 10 uM measured for 240 mins by HPLC-UV-MS analysis; format: ADME, cell-based, Hepatocyte; conditions: 4 h
[10] = Half life in Wistar Han rat; format: ADME; conditions: in vivo
Cytochrome P450 2D6 = Cytochrome P450 2D6 (Homo sapiens, UniProt P10635); assay: Reversible inhibition of CYP2D6 in pooled human liver microsomes using dextrorphan as substrate incubated for 14 mins in presence of NADPH by HPLC-MS/MS analysis; format: ADME, Microsome
Cytochrome P450 2D6, sequence (P10635 whole entry): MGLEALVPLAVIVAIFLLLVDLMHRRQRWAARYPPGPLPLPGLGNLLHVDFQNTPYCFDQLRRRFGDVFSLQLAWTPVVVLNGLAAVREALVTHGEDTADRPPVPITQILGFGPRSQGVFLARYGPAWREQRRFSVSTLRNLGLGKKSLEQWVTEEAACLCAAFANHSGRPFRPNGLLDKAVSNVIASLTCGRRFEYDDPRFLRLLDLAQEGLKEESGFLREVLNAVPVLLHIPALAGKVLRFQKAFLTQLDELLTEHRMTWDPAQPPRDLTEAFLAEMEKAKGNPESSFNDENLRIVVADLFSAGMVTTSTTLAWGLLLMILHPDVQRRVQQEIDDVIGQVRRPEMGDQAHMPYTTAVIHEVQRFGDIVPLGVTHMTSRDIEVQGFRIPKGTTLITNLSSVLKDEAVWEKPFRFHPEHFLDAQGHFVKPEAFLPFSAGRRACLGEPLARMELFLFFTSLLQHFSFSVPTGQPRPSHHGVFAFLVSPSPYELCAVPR

[11] = Drug metabolism in cryopreserved human hepatocytes assessed as O-deethylation mediated pyridin-3-ol metabolite formation at 10 uM measured for 240 mins by HPLC-UV-MS analysis; format: ADME, cell-based, Hepatocyte; conditions: 4 h
[12] = Volume of distribution at steady state in Wistar Han rat; format: ADME; conditions: in vivo, read-out: Vdss
Cytochrome P450 2C9 = Cytochrome P450 2C9 (Homo sapiens, UniProt P11712); assay: Reversible inhibition of CYP2C9 in pooled human liver microsomes using 4-Hydroxydiclofenac as substrate incubated for 10 mins in presence of NADPH by HPLC-MS/MS analysis; format: ADME, Microsome
Cytochrome P450 2C9, sequence (P11712 whole entry): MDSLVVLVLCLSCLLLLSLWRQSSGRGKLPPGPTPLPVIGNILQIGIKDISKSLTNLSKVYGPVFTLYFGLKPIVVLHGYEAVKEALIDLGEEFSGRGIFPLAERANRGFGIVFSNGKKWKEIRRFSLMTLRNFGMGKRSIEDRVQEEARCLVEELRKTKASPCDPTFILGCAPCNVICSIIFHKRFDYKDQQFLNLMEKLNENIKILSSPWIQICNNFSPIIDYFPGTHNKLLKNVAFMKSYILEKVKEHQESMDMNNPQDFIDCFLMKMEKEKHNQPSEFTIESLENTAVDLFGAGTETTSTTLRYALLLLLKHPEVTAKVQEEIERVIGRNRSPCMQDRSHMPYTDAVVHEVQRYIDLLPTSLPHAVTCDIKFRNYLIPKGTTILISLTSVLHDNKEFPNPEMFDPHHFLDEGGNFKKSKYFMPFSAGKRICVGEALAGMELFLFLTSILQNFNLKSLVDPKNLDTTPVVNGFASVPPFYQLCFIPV

Cytochrome P450 1A2 = target: T2, Cytochrome P450 1A2 (Homo sapiens, UniProt P05177); assay: Reversible inhibition of CYP1A2 in pooled human liver microsomes using […] as substrate incubated for 20 mins in presence of NADPH by HPLC-MS/MS analysis; format: ADME, Microsome
T2 sequence (P05177 whole entry): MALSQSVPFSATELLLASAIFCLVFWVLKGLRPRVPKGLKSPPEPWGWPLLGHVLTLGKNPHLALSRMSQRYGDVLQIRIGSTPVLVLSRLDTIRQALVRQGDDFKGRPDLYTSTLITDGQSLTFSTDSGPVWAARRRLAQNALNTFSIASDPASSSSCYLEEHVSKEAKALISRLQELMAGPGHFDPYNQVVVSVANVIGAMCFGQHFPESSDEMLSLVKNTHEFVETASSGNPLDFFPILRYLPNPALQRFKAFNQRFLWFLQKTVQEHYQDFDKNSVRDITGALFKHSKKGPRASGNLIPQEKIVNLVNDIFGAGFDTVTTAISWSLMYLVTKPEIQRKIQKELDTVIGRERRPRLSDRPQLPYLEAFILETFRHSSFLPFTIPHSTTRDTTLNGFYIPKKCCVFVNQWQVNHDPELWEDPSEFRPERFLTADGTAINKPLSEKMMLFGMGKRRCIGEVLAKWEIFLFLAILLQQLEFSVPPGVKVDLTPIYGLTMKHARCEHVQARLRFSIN

[13] = Half life in human; format: ADME
[14] = target: T3, Diacylglycerol O-acyltransferase 1 (Homo sapiens, UniProt O75907); assay: Inhibition of human DGAT1 using [1-14C]decanoyl-CoA and 1,2-didecanoyl-sn-glycerol as substrates assessed as incorporation of [1-14C]decanoyl […] preincubated for 30 mins followed by substrate addition and measured after 30 to 90 mins by scintillation counting method
T3 sequence (O75907 whole entry): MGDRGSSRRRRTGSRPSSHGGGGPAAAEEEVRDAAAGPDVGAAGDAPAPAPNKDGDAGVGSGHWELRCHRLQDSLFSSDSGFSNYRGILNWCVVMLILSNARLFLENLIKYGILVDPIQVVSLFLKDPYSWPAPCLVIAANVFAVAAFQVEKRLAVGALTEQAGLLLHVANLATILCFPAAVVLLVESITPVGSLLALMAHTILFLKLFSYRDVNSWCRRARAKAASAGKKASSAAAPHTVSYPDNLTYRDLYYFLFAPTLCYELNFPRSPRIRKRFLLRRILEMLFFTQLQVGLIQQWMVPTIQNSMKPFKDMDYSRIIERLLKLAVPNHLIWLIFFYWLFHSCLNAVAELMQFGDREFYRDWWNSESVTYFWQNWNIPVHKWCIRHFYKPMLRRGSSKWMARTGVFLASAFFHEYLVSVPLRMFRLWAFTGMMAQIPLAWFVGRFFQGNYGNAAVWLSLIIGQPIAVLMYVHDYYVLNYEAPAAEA

CYP3A4/5 = CYP3A4/5 (Homo sapiens, UniProt P08684+P20815); assay: Reversible inhibition of CYP3A4/5 in pooled human liver microsomes; format: ADME, Microsome
[15] = Dissociation constant, pKa of compound; format: physicochemical
[16] = Drug metabolism in cryopreserved human hepatocytes assessed as O-dearylation mediated oxidative metabolite formation at 10 uM measured for 240 mins by HPLC-UV-MS analysis; format: ADME, cell-based, Hepatocyte; conditions: 4 h
Cytochrome P450 2C8 = target: T4, Cytochrome P450 2C8 (Homo sapiens, UniProt P10632); assay: Reversible inhibition of CYP2C8 in pooled human liver microsomes using desethylamodiaquine as substrate incubated for 10 mins in presence of NADPH by HPLC-MS/MS analysis; format: ADME, Microsome
T4 sequence (P10632 whole entry): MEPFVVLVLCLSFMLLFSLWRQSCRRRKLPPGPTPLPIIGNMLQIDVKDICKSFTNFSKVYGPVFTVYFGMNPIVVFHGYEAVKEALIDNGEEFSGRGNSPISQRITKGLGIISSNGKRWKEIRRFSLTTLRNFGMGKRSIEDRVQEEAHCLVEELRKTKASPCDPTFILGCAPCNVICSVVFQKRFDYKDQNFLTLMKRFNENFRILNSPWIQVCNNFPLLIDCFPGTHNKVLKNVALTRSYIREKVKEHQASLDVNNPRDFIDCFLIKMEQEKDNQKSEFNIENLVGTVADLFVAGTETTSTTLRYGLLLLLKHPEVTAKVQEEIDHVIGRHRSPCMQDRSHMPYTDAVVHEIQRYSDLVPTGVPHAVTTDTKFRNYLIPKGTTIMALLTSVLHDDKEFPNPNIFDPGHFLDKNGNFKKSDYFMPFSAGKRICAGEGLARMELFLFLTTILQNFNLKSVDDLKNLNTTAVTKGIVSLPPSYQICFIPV

Cytochrome P450 2C19 = Cytochrome P450 2C19 (Homo sapiens, UniProt P33261); assay: Reversible inhibition of CYP2C19 in pooled human liver microsomes using 4-Hydroxymephenytoin as substrate incubated for 20 mins in presence of NADPH by HPLC-MS/MS analysis; format: ADME, Microsome
Cytochrome P450 2C19, sequence (P33261 whole entry): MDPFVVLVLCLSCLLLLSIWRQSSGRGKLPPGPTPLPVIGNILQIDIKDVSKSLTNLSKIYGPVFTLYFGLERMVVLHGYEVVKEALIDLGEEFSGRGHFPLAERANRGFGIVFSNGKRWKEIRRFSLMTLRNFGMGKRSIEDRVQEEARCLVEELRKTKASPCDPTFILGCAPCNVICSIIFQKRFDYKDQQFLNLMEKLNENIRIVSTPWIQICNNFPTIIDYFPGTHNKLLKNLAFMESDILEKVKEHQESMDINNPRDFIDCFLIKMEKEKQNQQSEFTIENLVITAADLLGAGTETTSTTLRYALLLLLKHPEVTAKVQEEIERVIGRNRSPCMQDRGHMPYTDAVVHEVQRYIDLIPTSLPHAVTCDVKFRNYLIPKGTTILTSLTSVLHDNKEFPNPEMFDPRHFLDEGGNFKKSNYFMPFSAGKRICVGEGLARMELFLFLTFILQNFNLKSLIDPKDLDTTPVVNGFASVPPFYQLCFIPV

[17] = Oral bioavailability in Wistar Han rat at 5 mg/kg; format: ADME, organism-based; conditions: in vivo
[18] = Plasma clearance in Wistar Han rat; format: ADME
Cytochrome P450 2B6 = target: T5, Cytochrome P450 2B6 (Homo sapiens, UniProt P20813); assay: Reversible inhibition of CYP2B6 in pooled human liver microsomes; format: ADME, Microsome
T5 sequence (P20813 whole entry): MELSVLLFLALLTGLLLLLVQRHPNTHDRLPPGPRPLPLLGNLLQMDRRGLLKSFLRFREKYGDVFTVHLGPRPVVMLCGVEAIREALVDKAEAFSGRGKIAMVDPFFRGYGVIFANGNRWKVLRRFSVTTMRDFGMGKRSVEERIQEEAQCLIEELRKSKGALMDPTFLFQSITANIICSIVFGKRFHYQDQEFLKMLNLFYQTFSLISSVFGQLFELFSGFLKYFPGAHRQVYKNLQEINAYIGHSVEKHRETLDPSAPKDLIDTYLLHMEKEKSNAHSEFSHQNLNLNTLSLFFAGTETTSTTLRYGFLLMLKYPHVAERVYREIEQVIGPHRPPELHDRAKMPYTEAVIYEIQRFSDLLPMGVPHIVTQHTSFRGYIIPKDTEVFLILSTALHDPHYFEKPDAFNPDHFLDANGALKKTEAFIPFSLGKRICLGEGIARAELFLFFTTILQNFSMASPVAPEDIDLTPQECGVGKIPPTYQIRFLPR

CCOc1cccnc1Oc1cncc(-c2ncc(C(=O)NC3(CO)CCOC3)cn2)c1 (stereo in doubt; 5)
CLH ([1]; hepatocytes, 4 h, 1 µM): < 4 µL/min
Papp ([2]; mdck-ii): 3 10^-6 cm/s

CCOc1cccnc1Oc1cncc(-c2ncc(C(=O)NC3CCS(=O)(=O)C3)cn2)c1 (racemic)
hepatocyte CLint at 1 µM [1]: 5 µL/min/1e6 cells
logD (physchem): 1.6
Papp ([2]; MDCK, read-out: Papp): 5 ×10⁻⁶ cm/s

CCOc1cccnc1Oc1cncc(-c2ncc(C(=O)N[C@@H]3CCOC3)cn2)c1
hepatocyte CLint at 1 µM [1]: 5 µL/min/1e6 cells
logD (physchem): 1.9
Papp ([2]; MDCK, read-out: Papp): 14 ×10⁻⁶ cm/s

CCOc1ccccc1O[C@@H]1CCCN(c2ncc(C(=O)NCc3cccc(C(=O)O)c3)cn2)C1
microsomal CLint [3]: 9 µL/min/mg
Papp [4]: 2 ×10⁻⁶ cm/s
logD [5]: 0.7
hepatocyte CLint [6]: < 12 µL/min/1e6 cells

CCOc1cccnc1Oc1cncc(-c2ncc(C(=O)NC3(CO)CCOC3)cn2)c1 (stereo in doubt; 4)
hepatocyte CLint at 1 µM [1]: < 3 µL/min/1e6 cells
logD (physchem): 1.6
Papp ([2]; MDCK, read-out: Papp): 4 ×10⁻⁶ cm/s

CCOc1cccnc1Oc1cncc(-c2ncc(C(=O)NC3CCOCC3)cn2)c1
hepatocyte CLint at 1 µM [1]: 7 µL/min/1e6 cells
logD (physchem): 2.6
Papp ([2]; MDCK, read-out: Papp): 20 ×10⁻⁶ cm/s
IC50 [7]: 353 nM

CCOc1cccnc1Oc1cncc(-c2ncc(C(=O)NC3CC(=O)N(C)C3)cn2)c1 (racemic)
hepatocyte CLint at 1 µM [1]: < 3 µL/min/1e6 cells
logD (physchem): 1.7
Papp ([2]; MDCK, read-out: Papp): 1 ×10⁻⁶ cm/s
IC50 [7]: 501 nM

CCOc1cccnc1Oc1cncc(-c2ncc(C(=O)NC3CCCOC3)cn2)c1 (racemic)
hepatocyte CLint at 1 µM [1]: 11 µL/min/1e6 cells
logD (physchem): 2.2
Papp ([2]; MDCK, read-out: Papp): 23 ×10⁻⁶ cm/s
IC50 [7]: 11.5 nM

CCOc1ccccc1O[C@@H]1CCCN(c2ncc(C(=O)NC(C)(C)CO)cn2)C1
logD (physchem): 2.8
microsomal CLint [8]: 121 µL/min/mg
Papp ([2]; MDCK, read-out: Papp): 19 ×10⁻⁶ cm/s

CCOc1cccnc1Oc1cncc(-c2ncc(C(=O)NC(C)(C)CO)cn2)c1
Drug metabolism [9]: Metabolite_Detected
half-life [10]: 24 min
hepatocyte CLint at 1 µM [1]: 8 µL/min/1e6 cells
IC50 (Cytochrome P450 2D6): > 30 µM
Drug metabolism [11]: Metabolite_Detected
logD (physchem): 2
Vd [12]: 1.2 L/kg
IC50 (Cytochrome P450 2C9): 7.8 µM
IC50 (Cytochrome P450 1A2): > 30 µM
half-life [13]: > 240 min
IC50 [14]: > 50 µM
IC50 (CYP3A4/5): > 30 µM
pKa [15]: 2.5
microsomal CLint [8]: 14 µL/min/mg
Drug metabolism [16]: Metabolite_Notdetected
IC50 (Cytochrome P450 2C8): > 30 µM
IC50 (Cytochrome P450 2C19): > 30 µM
bioavailability [17]: 29%
Papp ([2]; MDCK, read-out: Papp): 21 ×10⁻⁶ cm/s
clearance [18]: 57 mL/min/kg
IC50 (Cytochrome P450 2B6): > 24 µM
IC50 [7]: 6.6 nM

CCNC(=O)c1cnc(-c2cncc(Oc3ncccc3OCC)c2)nc1
hepatocyte CLint at 1 µM [1]: 7 µL/min/1e6 cells
Papp ([2]; MDCK, read-out: Papp): 15 ×10⁻⁶ cm/s
IC50 [7]: 84.6 nM

CCOc1cccnc1O[C@@H]1CCCN(c2ncc(C(=O)NC(C)(C)CO)cn2)C1
logD (physchem): 1.8
microsomal CLint [8]: 108 µL/min/mg
IC50 [7]: 31.8 nM

CCOc1cccnc1Oc1cncc(-c2ncc(C(=O)NC(C)(C)CS(C)(=O)=O)cn2)c1
hepatocyte CLint at 1 µM [1]: 8 µL/min/1e6 cells
logD (physchem): 1.9
Papp ([2]; MDCK, read-out: Papp): 15 ×10⁻⁶ cm/s
